Laboratory results as given in paper PMC10970486 (Bioconjugate chemistry, 2024).

Molecular target: MelBSt (melibiose permease) (Salmonella enterica, UniProt P30878)
Assay: displacement of D2G, Trp to dansyl FRET
Format: binding
Conditions: excess melibiose added after D2G; extract in DDM, TMG-A13 or TMG-P10,8

MelBSt (melibiose permease), sequence (P30878 whole entry): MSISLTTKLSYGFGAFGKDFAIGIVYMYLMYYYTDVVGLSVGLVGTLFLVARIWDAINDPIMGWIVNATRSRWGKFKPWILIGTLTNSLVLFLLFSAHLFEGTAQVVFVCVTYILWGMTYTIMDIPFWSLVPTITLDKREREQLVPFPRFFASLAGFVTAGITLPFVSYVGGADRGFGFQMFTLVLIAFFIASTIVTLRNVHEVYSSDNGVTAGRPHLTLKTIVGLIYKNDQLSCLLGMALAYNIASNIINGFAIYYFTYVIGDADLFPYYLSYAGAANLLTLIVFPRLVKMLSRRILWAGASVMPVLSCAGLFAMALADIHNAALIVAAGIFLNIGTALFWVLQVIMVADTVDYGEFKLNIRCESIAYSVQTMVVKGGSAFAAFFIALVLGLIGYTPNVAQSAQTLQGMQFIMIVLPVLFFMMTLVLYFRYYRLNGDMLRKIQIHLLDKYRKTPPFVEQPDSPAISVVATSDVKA

For `OC[C@H]1O[C@H](OC[C@H]2OC(O)[C@H](O)[C@@H](O)[C@@H]2O)[C@H](O)[C@@H](O)[C@H]1O` (stereo partly shown) [melibiose], the “displacement of D2G, Trp to dansyl FRET” value was “excess melibiose replaces the dansyl ligand with the non-fluorescent substrate in the active site”.
